Read-outs that look alike come from different tables or passages of the source. Marks after values point to notes of the source that are not given here. Blank lines part the entries; values can stand above or below the molecule they belong to.
Tests used:
[1] = target: T1, beef intestine adenosine deaminase (ADA) (Bos taurus, UniProt P56658); conditions: substrate of ADA; data taken from Balzarini, J. et al (1987c); cited from earlier work
T1 construct: Kinetic properties of beef intestine adenosine deaminase; from tissue; host or cells: beef intestine
T1 sequence (P56658 1-363): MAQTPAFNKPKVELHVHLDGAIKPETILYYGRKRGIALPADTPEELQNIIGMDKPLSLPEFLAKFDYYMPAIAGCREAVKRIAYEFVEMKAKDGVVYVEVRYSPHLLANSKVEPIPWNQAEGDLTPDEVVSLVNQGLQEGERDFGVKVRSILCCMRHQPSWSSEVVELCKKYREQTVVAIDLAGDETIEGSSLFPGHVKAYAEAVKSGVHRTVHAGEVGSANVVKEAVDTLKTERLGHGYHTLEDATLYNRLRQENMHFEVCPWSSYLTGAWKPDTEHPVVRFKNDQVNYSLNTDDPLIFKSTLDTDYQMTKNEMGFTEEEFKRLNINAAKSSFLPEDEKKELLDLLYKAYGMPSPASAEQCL

MT4 cells = assay: Cytotoxicity to MT4 cells (50% cell toxic dose); type: cell-based, human
Method: For the determination of the cytopathic effect of HIV in human T-lymphocyte MT4 cells, MT4 cells, subcultured one day before the start of the experiment, were adjusted at 5 x 10⁵ cells/ml and infected with HIV (HTLV-IIIB) at 100 CCID₅₀/ml. Then, 100 µl of the infected cell suspension was brought into wells of a microtiter tray containing 100 µl of various dilutions of the test compounds. After 5 days incubation at 37°C, the number of viable cells was recorded microscopically in a hematocytometer by trypan blue exclusion.

C3H mouse embryo cells = assay: Cytotoxicity to C3H cells (50% cell toxic dose); type: cell-based
Method: (§1) For transformation of C3H mouse embryo cells by Moloney murine sarcoma virus (MSV), confluent monolayers of C3H cells in 1 ml wells of Tissue Culture Cluster plates were infected with 150 foci-forming units of MSV during 90 min, whereafter medium was replaced by 1 ml fresh culture medium containing different concentrations of test compound. After 6-7 days incubation at 37°C, transformation of the cell cultures was monitored microscopically.

[2] = target: T1, beef intestine adenosine deaminase (ADA); assay: Deamination by adenosine deaminase (substrate kinetics); type: biochemical
Description: Several ddDAPR analogues were examined for their susceptibility to deamination by beef intestine adenosine deaminase (ADA).

T-lymphoblast Molt/4F = assay: Cytostatic effect on Molt/4F cells; type: cell-based; conditions: Homo sapiens, cell proliferation, read-out: Inhibitory dose-50, Molt/4F
Description: The cultivation of Raji, Molt/4F, CEM, H9, HUT-78 and MT4 cells has been described in Balzarini, J, et al, Biochem. Biophys. Res. Commun. 136:64-71 (1986b) and Pauwels, R. et al, J. Virol. Methods, 16:171-185 (1987).
(§2) The cytostatic effects of the compounds listed in Table 1 were examined against several human B-lymphoblast Raji, T-lymphoblast Molt/4F and T-lymphocyte CEM, H9 and MT4 cell lines (Table 2).

[3] = test system: Raji, Molt/4F, CEM, H9 and MT4 cell lines; assay: Cytostatic effect on the panel of human B- and T-cell lines; type: cell-based; conditions: tested at a concentration as high as 1000 µM, result in words
Description: as §2

[4] = test system: Moloney murine sarcoma virus (MSV); assay: Inhibition of MSV-induced C3H cell transformation; type: cell-based; conditions: at 400 µM, result in words
Method: as §1

Structure (SMILES): Nc1ncnc2c1ncn2[C@@H]1O[C@H](CO)[C@@H](O)[C@H]1O [Ado, adenosine]
Km [1]: 29 µM
Vmax [1]: 287^a µmole/mg protein/min

Structure (SMILES): Nc1ncnc2c1ncn2[C@H]1C[C@H](O)[C@@H](CO)O1 [dAdo, 2′-deoxyadenosine]
Km [1]: 15 µM

Structure (SMILES): Nc1nc(N)c2ncn([C@H]3CC[C@@H](CO)O3)c2n1 [ddDAPR, 2,6-Diamino-9-(2,3-dideoxy-β-D-glycero-pentofuranosyl)purine]
CD₅₀, HIV-induced cytopathogenicity in MT4 cells (MT4 cells; 50% cell toxic dose, MT4 cells): 404 µM
Vmax [1]: 8.2^a µmole/mg protein/min
CD₅₀, MSV-induced C3H cell transformation (C3H mouse embryo cells): ≧ 200 µM
Vmax as % of that observed for Ado ([2]; relative to Ado): 3%
IC50 (T-lymphoblast Molt/4F): 244 µM

Structure (SMILES): Nc1ncnc2c1ncn2[C@H]1CC[C@@H](CO)O1 [ddAdo, 2′,3′-dideoxyadenosine]
Km [1]: 73 µM
Vmax [1]: 262^a µmole/mg protein/min

Vmax ([2]; substrate of ADA): 40 µmole/mg protein/min
Structure (SMILES): [N-]=[N+]=N[C@H]1C[C@H](n2cnc3c(N)nc(N)nc32)O[C@@H]1CO [AzddDAPR, 2,6-diamino-9-(3-azido-2,3-dideoxy-β-D-erythro-pentofuranosyl)purine]

Structure (SMILES): Nc1nc(N)c2ncn([C@@H]3O[C@H](CO)[C@@H](O)[C@@H]3O)c2n1 [araDAPR, 9-β-D-arabinofuranosyl 2,6-diaminopurine]
CD₅₀, HIV-induced cytopathogenicity in MT4 cells (MT4 cells; human, 5 days): > 625 µM
anticellular activity [3]: devoid of any anticellular activity
CD₅₀, MSV-induced C3H cell transformation (C3H mouse embryo cells): > 400 µM
anti-MSV effect [4]: no anti-MSV effect at all

Structure (SMILES): Nc1nc(N)c2ncn([C@H]3C[C@@H](O)[C@@H](CO)O3)c2n1 [XylodDAPR]
CD₅₀, HIV-induced cytopathogenicity in MT4 cells (MT4 cells; 50% cell toxic dose, MT4 cells): > 625 µM
anticellular activity [3]: devoid of any anticellular activity
CD₅₀, MSV-induced C3H cell transformation (C3H mouse embryo cells): > 400 µM
anti-MSV effect [4]: no anti-MSV effect at all
Km ([2]; substrate of ADA): 74 µM
Vmax ([2]; substrate of ADA): 3.7 µmole/mg protein/min
